Species on record: Rattus norvegicus
Assay: DrugMatrix - Regimen: Daily Repeat
Format: toxicity, organism-based, Sprague-Dawley
Set-up: regimen Daily Repeat, gender Male, age 6-8 weeks
Conditions: in vivo, po, route oral GAVAGE, vehicle 100 % WATER; for ABSOLUTE BASOPHIL / ABSOLUTE EOSINOPHIL / ABSOLUTE LYMPHOCYTE / ABSOLUTE MONOCYTE / ABSOLUTE SEGMENTED NEUTROPHIL / BASOPHIL / EOSINOPHIL / ERYTHROCYTE COUNT / HEMATOCRIT / HEMOGLOBIN / LEUKOCYTE COUNT / LYMPHOCYTE / MEAN CORPUSCULAR HEMOGLOBIN / MEAN CORPUSCULAR HEMOGLOBIN CONCENTRATION / MEAN CORPUSCULAR VOLUME / MONOCYTE / NEUTROPHIL / NUCLEATED RED BLOOD CELLS / PLATELET COUNT: tissue Blood; for ALANINE AMINOTRANSFERASE / ALBUMIN / ALKALINE PHOSPHATASE / ASPARTATE AMINOTRANSFERASE / BLOOD UREA NITROGEN / CARBON DIOXIDE / CHLORIDE / CHOLESTEROL / CREATINE PHOSPHOKINASE / CREATININE / GLUCOSE / LACTATE DEHYDROGENASE / LIPASE / PHOSPHORUS / POTASSIUM / SODIUM / TOTAL BILIRUBIN / TOTAL PROTEIN / URIC ACID: tissue Plasma
[1] = 0 mg/kg, 72 h, dose level Control, time 3 day
[2] = 0 mg/kg, 120 h, dose level Control, time 5 day
[3] = 11 mg/kg, 72 h, dose level Low, time 3 day

CNS(=O)(=O)Cc1ccc2[nH]cc(CCN(C)C)c2c1
ABSOLUTE BASOPHIL [1]: 0 CELLS/uL | ABSOLUTE EOSINOPHIL [1]: 86.33 CELLS/uL | ABSOLUTE LYMPHOCYTE [1]: 12090.17 CELLS/uL | ABSOLUTE MONOCYTE [1]: 166.67 CELLS/uL | ABSOLUTE SEGMENTED NEUTROPHIL [1]: 1090.17 CELLS/uL | BASOPHIL [1]: 0% | EOSINOPHIL [1]: 0.67% | ERYTHROCYTE COUNT [1]: 5.57 x10E6/uL | HEMATOCRIT [1]: 35.33% | HEMOGLOBIN [1]: 13.83 G/DL | LEUKOCYTE COUNT [1]: 13.43 x10E3/uL | LYMPHOCYTE [1]: 89.83% | MEAN CORPUSCULAR HEMOGLOBIN [1]: 24.88 pg | MEAN CORPUSCULAR HEMOGLOBIN CONCENTRATION [1]: 39.15 G/DL | MEAN CORPUSCULAR VOLUME [1]: 63.52 fL | MONOCYTE [1]: 1.17% | NEUTROPHIL [1]: 8.33% | NUCLEATED RED BLOOD CELLS [1]: 0 /100WBC | PLATELET COUNT [1]: 1181.33 x10E3/uL | ALANINE AMINOTRANSFERASE [1]: 48.33 u/L | ALBUMIN [1]: 4.1 G/DL | ALKALINE PHOSPHATASE [1]: 395 u/L | ASPARTATE AMINOTRANSFERASE [1]: 81.83 u/L | BLOOD UREA NITROGEN [1]: 15.83 mg/dL | CARBON DIOXIDE [1]: 24.17 mmol/L | CHLORIDE [1]: 103.83 MEQ/L | CHOLESTEROL [1]: 63.67 mg/dL | CREATINE PHOSPHOKINASE [1]: 372.83 u/L | CREATININE [1]: 0.18 mg/dL | GLUCOSE [1]: 173.83 mg/dL | LACTATE DEHYDROGENASE [1]: 188.33 u/L | LIPASE [1]: 9.5 u/L | PHOSPHORUS [1]: 11.95 mg/dL | POTASSIUM [1]: 5.99 MEQ/L | SODIUM [1]: 144.43 MEQ/L | TOTAL BILIRUBIN [1]: 0.15 mg/dL | TOTAL PROTEIN [1]: 5.95 G/DL | URIC ACID [1]: 1.82 mg/dL | ABSOLUTE BASOPHIL [2]: 0 CELLS/uL | ABSOLUTE EOSINOPHIL [2]: 26.67 CELLS/uL | ABSOLUTE LYMPHOCYTE [2]: 7583.83 CELLS/uL | ABSOLUTE MONOCYTE [2]: 131.33 CELLS/uL | ABSOLUTE SEGMENTED NEUTROPHIL [2]: 674.83 CELLS/uL | BASOPHIL [2]: 0% | EOSINOPHIL [2]: 0.33% | ERYTHROCYTE COUNT [2]: 5.78 x10E6/uL | HEMATOCRIT [2]: 36.48% | HEMOGLOBIN [2]: 14.03 G/DL | LEUKOCYTE COUNT [2]: 8.42 x10E3/uL | LYMPHOCYTE [2]: 89.83% | MEAN CORPUSCULAR HEMOGLOBIN [2]: 24.3 pg | MEAN CORPUSCULAR HEMOGLOBIN CONCENTRATION [2]: 38.52 G/DL | MEAN CORPUSCULAR VOLUME [2]: 63.15 fL | MONOCYTE [2]: 1.67% | NEUTROPHIL [2]: 8.17% | NUCLEATED RED BLOOD CELLS [2]: 0 /100WBC | PLATELET COUNT [2]: 1186.67 x10E3/uL | ALANINE AMINOTRANSFERASE [2]: 50.17 u/L | ALBUMIN [2]: 4.07 G/DL | ALKALINE PHOSPHATASE [2]: 367.5 u/L | ASPARTATE AMINOTRANSFERASE [2]: 81.67 u/L | BLOOD UREA NITROGEN [2]: 16.17 mg/dL | CARBON DIOXIDE [2]: 32.33 mmol/L | CHLORIDE [2]: 101.5 MEQ/L | CHOLESTEROL [2]: 65.33 mg/dL | CREATINE PHOSPHOKINASE [2]: 255.33 u/L | CREATININE [2]: 0.17 mg/dL | GLUCOSE [2]: 139.33 mg/dL | LACTATE DEHYDROGENASE [2]: 95 u/L | LIPASE [2]: 10.5 u/L | PHOSPHORUS [2]: 10.38 mg/dL | POTASSIUM [2]: 6.11 MEQ/L | SODIUM [2]: 145.55 MEQ/L | TOTAL BILIRUBIN [2]: 0.17 mg/dL | TOTAL PROTEIN [2]: 5.98 G/DL | URIC ACID [2]: 0.93 mg/dL | ABSOLUTE BASOPHIL [3]: 0 CELLS/uL | ABSOLUTE EOSINOPHIL [3]: 39 CELLS/uL | ABSOLUTE LYMPHOCYTE [3]: 10656.67 CELLS/uL | ABSOLUTE MONOCYTE [3]: 38.67 CELLS/uL | ABSOLUTE SEGMENTED NEUTROPHIL [3]: 1065.67 CELLS/uL | BASOPHIL [3]: 0% | EOSINOPHIL [3]: 0.33% | ERYTHROCYTE COUNT [3]: 5.76 x10E6/uL | HEMATOCRIT [3]: 36.33% | HEMOGLOBIN [3]: 13.93 G/DL | LEUKOCYTE COUNT [3]: 11.8 x10E3/uL | LYMPHOCYTE [3]: 90.33% | MEAN CORPUSCULAR HEMOGLOBIN [3]: 24.2 pg | MEAN CORPUSCULAR HEMOGLOBIN CONCENTRATION [3]: 38.37 G/DL | MEAN CORPUSCULAR VOLUME [3]: 63.07 fL | MONOCYTE [3]: 0.33% | NEUTROPHIL [3]: 9% | NUCLEATED RED BLOOD CELLS [3]: 0 /100WBC | PLATELET COUNT [3]: 1289 x10E3/uL | ALANINE AMINOTRANSFERASE [3]: 45 u/L | ALBUMIN [3]: 3.83 G/DL | ALKALINE PHOSPHATASE [3]: 321.33 u/L | ASPARTATE AMINOTRANSFERASE [3]: 76.67 u/L | BLOOD UREA NITROGEN [3]: 14.67 mg/dL | CARBON DIOXIDE [3]: 26 mmol/L | CHLORIDE [3]: 103.33 MEQ/L | CHOLESTEROL [3]: 64.67 mg/dL | CREATINE PHOSPHOKINASE [3]: 413.33 u/L | CREATININE [3]: 0.14 mg/dL | GLUCOSE [3]: 155 mg/dL | LACTATE DEHYDROGENASE [3]: 166.33 u/L | LIPASE [3]: 8.67 u/L | PHOSPHORUS [3]: 12.6 mg/dL | POTASSIUM [3]: 6.24 MEQ/L | SODIUM [3]: 143.73 MEQ/L | TOTAL BILIRUBIN [3]: 0.17 mg/dL | TOTAL PROTEIN [3]: 5.63 G/DL | URIC ACID [3]: 1.4 mg/dL

Reference: ChEMBL document CHEMBL3885881, “DrugMatrix”
